Legend:
Assay type in all cases: cell-based
human TLR7 = biological target: T1, human TLR7 (Homo sapiens, UniProt Q9NYK1); experiment: TLR7 inhibition reporter assay (HEK-Blue cells, SEAP reporter, gardiquimod stimulation); details: HEK-Blue cells overexpressing human TLR7, SEAP reporter, gardiquimod 7.5 μM
T1 construct: host or cells: HEK-Blue cells (HEK293-derived reporter line)
T1 sequence (Q9NYK1 27-1049): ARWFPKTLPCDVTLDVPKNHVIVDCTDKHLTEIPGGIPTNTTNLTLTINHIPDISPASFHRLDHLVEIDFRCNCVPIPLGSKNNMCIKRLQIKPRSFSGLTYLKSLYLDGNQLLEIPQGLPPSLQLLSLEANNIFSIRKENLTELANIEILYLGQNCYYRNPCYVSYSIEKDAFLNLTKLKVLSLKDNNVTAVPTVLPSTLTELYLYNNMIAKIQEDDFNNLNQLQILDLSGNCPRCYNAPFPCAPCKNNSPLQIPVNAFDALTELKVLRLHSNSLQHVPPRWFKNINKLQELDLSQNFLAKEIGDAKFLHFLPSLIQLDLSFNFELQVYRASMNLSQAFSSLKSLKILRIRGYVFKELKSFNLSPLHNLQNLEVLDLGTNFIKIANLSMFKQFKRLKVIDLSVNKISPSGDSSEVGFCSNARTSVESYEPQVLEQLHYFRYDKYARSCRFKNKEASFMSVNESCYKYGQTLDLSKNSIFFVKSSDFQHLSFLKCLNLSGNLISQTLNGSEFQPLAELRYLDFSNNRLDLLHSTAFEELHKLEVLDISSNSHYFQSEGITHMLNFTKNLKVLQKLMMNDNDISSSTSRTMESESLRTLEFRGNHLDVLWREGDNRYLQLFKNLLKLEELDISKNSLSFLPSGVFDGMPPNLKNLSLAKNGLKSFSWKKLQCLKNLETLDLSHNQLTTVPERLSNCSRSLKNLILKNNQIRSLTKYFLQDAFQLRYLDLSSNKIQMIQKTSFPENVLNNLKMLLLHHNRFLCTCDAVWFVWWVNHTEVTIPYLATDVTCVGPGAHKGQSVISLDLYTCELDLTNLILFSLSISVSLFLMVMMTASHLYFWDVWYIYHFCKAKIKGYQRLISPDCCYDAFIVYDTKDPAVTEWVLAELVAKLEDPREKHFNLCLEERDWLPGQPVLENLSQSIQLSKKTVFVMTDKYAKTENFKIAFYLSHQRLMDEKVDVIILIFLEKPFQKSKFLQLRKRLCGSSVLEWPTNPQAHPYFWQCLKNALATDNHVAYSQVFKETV
Procedure, shortened: (§1)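 After 22 h at 37 °C, SEAP secretion was measured from human TLR7-, TLR8- or TLR9-expressing HEK-Blue reporter cells given compound (0.05 nM–50 μM) 30 min before agonist: 7.5 μM gardiquimod, 15.9 μM R848 or 5 nM ODN2006 respectively. Percent inhibition referenced to agonist-plus-DMSO and known-inhibitor wells.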

human TLR8 = biological target: T2, human TLR8 (Homo sapiens, UniProt Q9NR97); experiment: TLR8 inhibition reporter assay (HEK-Blue cells, SEAP reporter, R848 stimulation); details: HEK-Blue cells overexpressing human TLR8, SEAP reporter, R848 15.9 μM
T2 construct: host or cells: HEK-Blue cells (HEK293-derived reporter line)
T2 sequence (Q9NR97 27-1041): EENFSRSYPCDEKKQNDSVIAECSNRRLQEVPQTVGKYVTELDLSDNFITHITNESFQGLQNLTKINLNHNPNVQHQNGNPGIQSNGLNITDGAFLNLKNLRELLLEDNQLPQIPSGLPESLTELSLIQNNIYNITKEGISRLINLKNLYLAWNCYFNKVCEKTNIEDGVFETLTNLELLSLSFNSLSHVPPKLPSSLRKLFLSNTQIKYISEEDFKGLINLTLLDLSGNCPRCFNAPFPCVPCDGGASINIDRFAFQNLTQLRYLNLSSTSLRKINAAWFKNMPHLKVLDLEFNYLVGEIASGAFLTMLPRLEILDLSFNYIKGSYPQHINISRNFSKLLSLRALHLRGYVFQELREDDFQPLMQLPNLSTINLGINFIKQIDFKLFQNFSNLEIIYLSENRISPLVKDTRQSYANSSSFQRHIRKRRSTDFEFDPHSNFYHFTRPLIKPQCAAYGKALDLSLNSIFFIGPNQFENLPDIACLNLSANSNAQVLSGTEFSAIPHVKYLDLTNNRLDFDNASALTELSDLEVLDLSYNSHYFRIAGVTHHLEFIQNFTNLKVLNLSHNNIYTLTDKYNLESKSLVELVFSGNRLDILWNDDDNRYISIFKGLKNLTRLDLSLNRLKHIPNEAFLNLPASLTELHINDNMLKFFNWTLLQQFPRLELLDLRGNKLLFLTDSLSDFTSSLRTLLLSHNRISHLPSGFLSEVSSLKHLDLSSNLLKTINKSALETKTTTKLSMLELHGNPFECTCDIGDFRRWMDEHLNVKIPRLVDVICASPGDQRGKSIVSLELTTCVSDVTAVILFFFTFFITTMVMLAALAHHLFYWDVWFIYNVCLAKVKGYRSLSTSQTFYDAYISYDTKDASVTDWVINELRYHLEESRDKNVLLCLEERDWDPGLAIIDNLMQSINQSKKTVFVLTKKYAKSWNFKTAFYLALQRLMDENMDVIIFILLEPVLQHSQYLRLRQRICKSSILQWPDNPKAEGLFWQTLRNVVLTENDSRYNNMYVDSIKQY
Procedure, shortened: as §1

human TLR9 = biological target: T3, human TLR9 (Homo sapiens, UniProt Q9NR96); experiment: TLR9 inhibition reporter assay (HEK-Blue cells, SEAP reporter, ODN2006 stimulation); details: HEK-Blue cells overexpressing human TLR9, SEAP reporter, ODN2006 5 nM
T3 construct: host or cells: HEK-Blue cells (HEK293-derived reporter line)
T3 sequence (Q9NR96 26-1032): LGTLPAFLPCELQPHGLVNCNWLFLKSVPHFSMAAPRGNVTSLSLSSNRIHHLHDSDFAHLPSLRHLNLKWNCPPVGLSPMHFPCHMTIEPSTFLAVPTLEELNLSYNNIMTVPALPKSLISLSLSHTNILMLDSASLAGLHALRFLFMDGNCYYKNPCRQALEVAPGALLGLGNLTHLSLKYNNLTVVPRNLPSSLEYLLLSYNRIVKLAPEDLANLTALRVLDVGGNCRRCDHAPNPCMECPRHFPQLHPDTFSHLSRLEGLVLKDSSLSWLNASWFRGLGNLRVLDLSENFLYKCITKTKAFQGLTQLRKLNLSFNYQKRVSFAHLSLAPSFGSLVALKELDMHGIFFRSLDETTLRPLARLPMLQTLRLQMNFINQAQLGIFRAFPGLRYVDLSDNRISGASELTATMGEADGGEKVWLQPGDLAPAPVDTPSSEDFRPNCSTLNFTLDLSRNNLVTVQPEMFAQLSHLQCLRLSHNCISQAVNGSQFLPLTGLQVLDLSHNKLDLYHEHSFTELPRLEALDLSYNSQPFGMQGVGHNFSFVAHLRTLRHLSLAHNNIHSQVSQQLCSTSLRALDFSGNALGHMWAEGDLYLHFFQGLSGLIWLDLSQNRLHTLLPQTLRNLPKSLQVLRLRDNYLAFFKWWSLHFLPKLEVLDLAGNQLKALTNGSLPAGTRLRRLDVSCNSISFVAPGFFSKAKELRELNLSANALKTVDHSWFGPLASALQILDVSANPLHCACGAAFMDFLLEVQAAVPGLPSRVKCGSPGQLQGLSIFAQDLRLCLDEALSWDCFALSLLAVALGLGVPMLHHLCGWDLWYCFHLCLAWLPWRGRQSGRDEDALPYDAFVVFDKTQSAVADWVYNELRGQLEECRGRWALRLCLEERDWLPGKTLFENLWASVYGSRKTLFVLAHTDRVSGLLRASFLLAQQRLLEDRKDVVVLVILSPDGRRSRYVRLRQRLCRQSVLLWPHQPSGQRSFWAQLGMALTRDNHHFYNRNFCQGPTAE
Procedure, shortened: as §1

IC50 (human TLR7) | IC50 (human TLR8) | IC50 (human TLR9) | Structure (SMILES)
100 to 1000 nM | 100 to 1000 nM | 1000 to 50000 nM | CC(C)c1c(-c2ccnc3[nH]ncc23)[nH]c2ccc(C3CCN(C(=O)c4cc[nH]n4)CC3)cc12 [Example 615, (4-(3-isopropyl-2-(1H-pyrazolo[3,4-b]pyridin-4-yl)-1H-indol-5-yl)piperidin-1-yl)(1H-pyrazol-3-yl)methanone]
< 100 nM | 100 to 1000 nM | 100 to 1000 nM | CC(C)c1c(-c2cnc3nccn3c2)[nH]c2ccc(C3CCN(CC(C)(C)O)CC3)cc12 [Example 761, 1-(4-(2-(imidazo[1,2-a]pyrimidin-6-yl)-3-isopropyl-1H-indol-5-yl)piperidin-1-yl)-2-methylpropan-2-ol]
< 100 nM | 100 to 1000 nM | < 100 nM | CN(C)CC(=O)N1CCC(c2ccc3[nH]c(-c4ccn5ccnc5c4)c(CC(F)F)c3c2)CC1 [Example 571, 1-(4-(3-(2,2-difluoroethyl)-2-(imidazo[1,2-a]pyridin-7-yl)-1H-indol-5-yl)piperidin-1-yl)-2-(dimethylamino)ethan-1-one]
< 100 nM | < 100 nM | 100 to 1000 nM | CC(C)c1c(-c2ccnc3[nH]ncc23)[nH]c2ccc(C3CCN(C4CCNCC4)CC3)cc12 [Example 832, 4-(5-([1,4′-bipiperidin]-4-yl)-3-isopropyl-1H-indol-2-yl)-1H-pyrazolo[3,4-b]pyridine]
1000 to 50000 nM | > 3130 nM | 100 to 1000 nM | CC(C)c1c(-c2cnc3ccnn3c2)[nH]c2ccc(C3CCN(C(=O)CN(C)C)CC3)cc12 [Example 502, 2-(dimethylamino)-1-(4-(3-isopropyl-2-(pyrazolo[1,5-a]pyrimidin-6-yl)-1H-indol-5-yl)piperidin-1-yl)ethan-1-one]
< 100 nM | < 100 nM | 1000 to 50000 nM | CNC(=O)CN1CCC(c2ccc3[nH]c(-c4ccn5nccc5c4)c(C(C)C)c3c2)CC1 [Example 405, 2-(4-(3-isopropyl-2-(pyrazolo[1,5-a]pyridin-5-yl)-1H-indol-5-yl)piperidin-1-yl)-N-methylacetamide]
1000 to 50000 nM | 1000 to 50000 nM | 1000 to 50000 nM | CC(C)c1c(-c2ccnc3c2ncn3C)[nH]c2ccc(C3CCNCC3)cc12 [Example 44, 7-(3-isopropyl-5-(piperidin-4-yl)-1H-indol-2-yl)-3-methyl-3H-imidazo[4,5-b]pyridine]
< 100 nM | < 100 nM | 1000 to 50000 nM | CCC(C)NCC(=O)N1CCC(c2ccc3[nH]c(-c4ccnc5[nH]ncc45)c(C(C)C)c3c2)CC1 (stereo not drawn) [Example 583, 2-(sec-butylamino)-1-(4-(3-isopropyl-2-(1H-pyrazolo[3,4-b]pyridin-4-yl)-1H-indol-5-yl)piperidin-1-yl)ethan-1-one]
100 to 1000 nM | 100 to 1000 nM | 100 to 1000 nM | COc1cc(-c2[nH]c3ccc(C4CCN(C(=O)CN(C)C)CC4)cc3c2C(C)C)cc2nc(C)cn12 [Example 541, 2-(dimethylamino)-1-(4-(3-isopropyl-2-(5-methoxy-2-methylimidazo[1,2-a]pyridin-7-yl)-1H-indol-5-yl)piperidin-1-yl)ethan-1-one]
< 100 nM | < 100 nM | 1000 to 50000 nM | Cc1cc(-c2[nH]c3ccc(C4CCNCC4)cc3c2C(C)C)cn2cc(C(=O)N(C)CCO)nc12 [Example 268, N-(2-hydroxyethyl)-6-(3-isopropyl-5-(piperidin-4-yl)-1H-indol-2-yl)-N,8-dimethylimidazo[1,2-a]pyridine-2-carboxamide]
< 100 nM | 100 to 1000 nM | 1000 to 50000 nM | Cc1nc2cc(-c3[nH]c4ccc(C5CCN(C(=O)CN(C)C)CC5)cc4c3C(C)C)ccn2n1 [Example 538, 2-(dimethylamino)-1-(4-(3-isopropyl-2-(2-methyl-[1,2,4]triazolo[1,5-a]pyridin-7-yl)-1H-indol-5-yl)piperidin-1-yl)ethan-1-one]
< 100 nM | < 100 nM | 100 to 1000 nM | CC(C)c1c(-c2ccn3nncc3c2)[nH]c2ccc(C3CCN(C4CCOCC4)CC3)cc12 [Example 701, 5-(3-isopropyl-5-(1-(tetrahydro-2H-pyran-4-yl)piperidin-4-yl)-1H-indol-2-yl)-[1,2,3]triazolo[1,5-a]pyridine]
< 100 nM | 1000 to 50000 nM | 1000 to 50000 nM | CC(C)c1c(-c2ccc3ncccc3c2)[nH]c2ccc(C3CCNCC3)cc12 [Example 190, 6-(3-isopropyl-5-(piperidin-4-yl)-1H-indol-2-yl)quinoline]
> 3130 nM | > 3130 nM | > 50000 nM | CC(C)c1c(-c2cnc3ccnn3c2)[nH]c2ccc(C3CCN(C(=O)C[C@H](C)O)CC3)cc12 [Example 595, (S)-3-hydroxy-1-(4-(3-isopropyl-2-(pyrazolo[1,5-a]pyrimidin-6-yl)-1H-indol-5-yl)piperidin-1-yl)butan-1-one]
